{"source": "patent US9802992B2", "about": "“Cell into which protein, which can serve as polymerization nucleus of protein polymer, or polymer thereof is introduced, and method for production of the cell” (TOKYO ME[…] OF MEDICAL SCIENCE, priority 2005, dated 2017)", "key": {"α-synuclein": {"target": "T1, α-synuclein (Homo sapiens, UniProt P37840)", "T1 construct": "made in house; host or cells: E. coli BL21(DE3), pRK172 vector", "experiment": "Inhibition of fibrillization of α-synuclein in vitro (thioflavin S fluorescence)", "type": "biochemical", "conditions": "2 mg/mL α-synuclein, shaking at 37° C., 20 μM Gossypetin, compared with sample without Gossypetin (FIG. 7)", "protocol": "Gossypetin, a polyphenol compound may be taken as an example of a candidate substance. Gossypetin is a flavonol contained in Gossypium herbaceum LINNE and is polyphenol compound used as a food additive. For example, it is possible to investigate whether Gossypetin inhibits fibrillization of α-synuclein in vitro by incubating α-synuclein in the presence of Gossypetin, adding thioflavin S to the solution after the reaction and measuring the fluorescence intensity. Thioflavin S is a test reagent which emits fluorescence upon binding to a protein which can serve as a polymerization nucleus of a protein polymer, or a protein polymer thereof, which are rich in β-sheet structure and which therefore can be used to determine the presence or absence of a protein which can serve as a polymerization nucleus of a protein polymer, or a protein polymer thereof. In contrast, since α-synuclein fibrils are rich in β-sheet structure, if Gossypetin inhibits fibrillization of α-synuclein, the fluorescence intensity should be lower than samples to which Gossypetin has not been added.\n[…] Fluorescence intensity was measured using a Hitachi F4000 spectrophotometer (excitation wavelength 440 nm, fluorescence wavelength 520 nm).\n2 mg/mL of α-synuclein was incubated with shaking at 37° C. in the presence or absence of 20 μM of Gossypetin. Fibril formation was measured by thioflavin S fluorescence. […]"}, "[1]": {"tested_on": "SH-SY5Y cells into which α-synuclein plasmid and fibrils are introduced (WT+FαS cells)", "experiment": "Cell death assay (LDH leakage) in the cellular model of α-synuclein proteinopathy", "type": "cell-based", "conditions": "Gossypetin (20 μM), incubated three days; without polyphenol approximately 50% (FIG. 8)", "protocol": "A cell death assay was performed using cells into which pcDNA3-α-syn vector and α-synuclein fibrils are introduced, and which had been incubated for three days either in the presence or the absence of a fibrillization inhibitor. Gossypetin (20 μM) which is a type of polyphenol was used as the fibrillization inhibitor.\nAfter incubation for three days, a portion of the cell media in the culture was harvested. The cells from the remaining media were prepared as a Tris-soluble fraction in the same manner as the Tris-soluble fraction described above. A cell death assay was performed on the harvested media and the Tris-soluble fraction using a CYTOTOX 96™ Non-Radioactive Cytotoxicity Assay Kit (Promega). The method was performed in accordance with the explanatory material accompanying the kit.\nA cell death assay was performed on the following three types of cells: untreated cells (none), FαS cells into which only α-synuclein fibril was introduced, and WT+FαS cells into which fibril and α-synuclein plasmid DNA were introduced. After culturing the cells for three days, cell death was evaluated by lactate dehydrogenase (LDH) leakage assay. This assay is based on determining how much LDH originally inside the cell has leaked outside the cell as a result of cell death.\nGossypetin was added to SH-SY5Y cells into which α-synuclein plasmid and fibrils are introduced, and incubated for three days. […]"}}}
{"smiles": "O=c1c(O)c(-c2ccc(O)c(O)c2)oc2c(O)c(O)cc(O)c12", "note": "[Gossypetin]", "values": [{"measurement": "thioflavin S fluorescence intensity (fibril formation of α-synuclein)", "setting": "α-synuclein", "result": "conspicuous decrease"}, {"measurement": "rate of cell death", "setting": "[1]", "result": "conspicuous inhibition"}]}
